The results in this text go back to ChEMBL document CHEMBL1156689, “Comparison of the cytotoxic activities of naturally occurring hydroxyanthraquinones and hydroxynaphthoquinones” (Eur J Med Chem, 2008).

One test concerns HCT-116. Nature of the test: Cytotoxicity against MDR1 Pgp under-expressing human HCT116 cells after 24 hrs by MTT assay. The format is functional, cell-based. The following applies: HCT-116, 24 h. (In general: Tetrazolium dyes change colour on reduction, which living cells bring about.)
In a further test the test system is HepG2. Nature of the test: Cytotoxicity against MDR1 Pgp overexpressing human HepG2 cells after 24 hrs by MTT assay. The format is functional, cell-based. Conditions: HepG2, 24 h.

Regarding `O=C1c2cc(CO)cc(O)c2C(=O)c2c(O[C@@H]3O[C@H](CO)[C@@H](O)[C@H](O)[C@H]3O)cccc21`, the figures for the IC50 in the test with HCT-116 and in the test on HepG2 were 75 µM and greater than 100 µM, respectively.

For `CC(C)=CC[C@H](OC(=O)C1OC1C)C1=CC(=O)c2c(O)ccc(O)c2C1=O` (some centres undefined), the IC50 (commonly the midpoint of a concentration-inhibition curve) in the test on HCT-116 amounted to 0.39 µM; with HepG2 it was 0.34 µM.

Consider `CCC(=O)Oc1cc(C)cc2c1C(=O)c1c(OC(=O)CC)cc(OC)cc1C2=O`, for which the figures for the 50% inhibitory concentration (IC50) in the test with HCT-116 and in the test on HepG2 were 9.2 µM and greater than 100 µM, respectively.

Consider `CCC(=O)Oc1cccc2c1C(=O)c1c(OC(=O)CC)cc(C)cc1C2=O`, for which the IC50 in the test with HCT-116 was 14.8 µM; with HepG2, greater than 100 µM.

As to `CC(=O)O[C@@H](CC=C(C)C)C1=CC(=O)c2c(O)ccc(O)c2C1=O` [ACETYLALKANNIN], the figures for the IC50 in the test with HCT-116 and with HepG2 were 0.34 µM and 0.39 µM, respectively.

As to `CC(=O)O[C@H](CC=C(C)C)C1=CC(=O)c2c(O)ccc(O)c2C1=O` [ACETYLSHIKONIN], the IC50 came to 0.45 µM in the test with HCT-116 and 0.38 µM in the test on HepG2.

As to `O=C1c2cccc(O)c2C(=O)c2c(O)cc(CO)cc21` [ALOE-EMODIN], the figures for the IC50 with HCT-116 and in the test with HepG2 were 8.7 µM and 10 µM, respectively.

For `CC(C)=CC[C@@H](OC(=O)CC(C)(C)O)C1=CC(=O)c2c(O)ccc(O)c2C1=O` [BETA-HYDROXYISOVALERYLSHIKONIN], the IC50 in the test with HCT-116 is 0.37 µM; with HepG2, 0.59 µM.

Turning to `Cc1cc(O)c2c(c1)C(=O)c1cccc(O)c1C2=O` [CHRYSOPHANOL], the results for the IC50 with HCT-116 and in the test on HepG2 were 47.4 µM and 64.4 µM, respectively.

Turning to `Cc1cc(O)c2c(c1)C(=O)c1cc(O)cc(O)c1C2=O` [EMODIN], the IC50 is 5.7 µM with HCT-116 and 5.2 µM in the test on HepG2.

In the case of `CCO[C@H](CC=C(C)C)C1=CC(=O)c2c(O)ccc(O)c2C1=O` [ETHYLSHIKONIN], the results for the IC50 in the test with HCT-116 and with HepG2 were 0.45 µM and 0.42 µM, respectively.

For `CC(C)=CC[C@H](OC(=O)C(C)C)C1=CC(=O)c2c(O)ccc(O)c2C1=O` [ISOBUTYLALKANNIN], the values for the half-inhibitory concentration (IC50) in the test with HCT-116 and with HepG2 were 0.3 µM and 0.42 µM, respectively.

`CC(C)=CC[C@@H](OC(=O)C(C)C)C1=CC(=O)c2c(O)ccc(O)c2C1=O` [ISOBUTYLSHIKONIN]: the IC50 in the test with HCT-116 stood at 0.34 µM; in the test with HepG2, 0.22 µM.

In the case of `COc1cc(O)c2c(c1)C(=O)c1cc(C)cc(O)c1C2=O` [PHYSCION], the IC50 in the test on HCT-116 turned out to be 19 µM; in the test on HepG2 it was 77.3 µM.

Turning to `O=C(O)c1cc(O)c2c(c1)C(=O)c1cccc(O)c1C2=O` [RHEIN], the IC50 came to 13 µM in the test on HCT-116 and 12.3 µM in the test with HepG2.

Consider `CC(C)=CC[C@@H](O)C1=CC(=O)c2c(O)ccc(O)c2C1=O` [SHIKONIN], for which the IC50 with HCT-116 turned out to be 0.23 µM; with HepG2, 0.24 µM.

Turning to `O=C(O)c1cc(O)c2c(c1)[C@H]([C@H]1c3cc(C(=O)O)cc(O)c3C(=O)c3c(O[C@@H]4O[C@H](CO)[C@@H](O)[C@H](O)[C@H]4O)cccc31)c1cccc(O[C@@H]3O[C@H](CO)[C@@H](O)[C@H](O)[C@H]3O)c1C2=O` [Sennoside A], the concentration for half-maximal inhibition (IC50) with HCT-116 was found to be 68.2 µM; with HepG2, 51.6 µM.
